These results are taken from patent US8722887B2, “Sulfonylpyrazole and sulfonylpyrazoline carboxamidine derivatives as 5-HT6 antagonists” (Abbvie Bahamas, Ltd., priority 2006, dated 2014).

The structures appear in SMILES notation. Read-outs that look alike come from different tables or passages of the source.

The target in experiment [1] is T1, 5-HT6 receptor (Homo sapiens, UniProt P50406). The experiment is described as follows: In vitro affinity for human 5-HT6 receptors, [3H]-LSD binding in CHO cell membranes. Details: host or cells: CHO/Gα16/mtAEQ/h5HT6-A1 (CHO AequoScreen recombinant cell line).
T1 sequence (P50406 whole entry): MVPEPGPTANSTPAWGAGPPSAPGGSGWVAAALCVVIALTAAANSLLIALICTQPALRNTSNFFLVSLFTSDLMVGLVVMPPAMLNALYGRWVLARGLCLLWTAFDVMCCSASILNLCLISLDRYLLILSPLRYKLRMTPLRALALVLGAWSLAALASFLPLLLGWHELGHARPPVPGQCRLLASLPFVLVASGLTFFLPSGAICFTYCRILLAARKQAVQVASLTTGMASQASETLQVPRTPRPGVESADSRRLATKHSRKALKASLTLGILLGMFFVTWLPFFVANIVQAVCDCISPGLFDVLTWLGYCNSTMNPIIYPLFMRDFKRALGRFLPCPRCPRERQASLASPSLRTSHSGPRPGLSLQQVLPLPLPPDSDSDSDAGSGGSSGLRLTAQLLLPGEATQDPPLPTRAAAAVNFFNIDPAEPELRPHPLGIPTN
Protocol: Affinity for human 5-HT6 receptors was measured in a membrane preparation of CHO-cells transfected with human 5-HT6 receptors by binding studies using [^3H]-N-Methyl-Lysergic acid diethylamide ([^3H]-LSD) as ligand. […] CHO/Gα16/mtAEQ/h5HT6-A1 cells were grown in T-flasks in CHO-S-SFM II medium (Gibco BRL), supplemented with 1% dialysed FCS, 2 mM L-glutamine, Geneticin 500 μg/ml and Zeocin 200 μg/ml. […] After thawing cells were centrifuged during 3 minutes at 1500 g at 4° C. […] The assay was established so as to achieve steady state conditions and to optimize specific binding. For the 5-HT6 receptor, membranes from 5.10^5 cells were incubated with 5.0 nM [^3H]-LSD at 37° C. for 30 minutes. Nonspecific binding was determined using 10^−5 M serotonin. Assays were terminated by vacuum filtration through glass fiber filters (GF/B) which had been pretreated with 0.5% polyethyleneimine. Total and bound radioactivity was determined by liquid scintillation counting. […] Compounds were tested at a 4 log concentration range; all determinations were performed as triplicates. IC50 values were determined by non-linear regression analysis using Hill equation curve fitting. The inhibition constants (Ki-values) were calculated from the Cheng-Preushoff equation: Ki=IC50:(1+L/Kd) wherein L represents the concentration radioligand ([^3H]-LSD) in the assay, and Kd the affinity of the radioligand for the receptor. Results are expressed as pKi-values, means±SD of at least three separate experiments.
Experiment [2] has as its target T1, 5-HT6 receptor. Kind of experiment: In vitro functional activity (antagonism) on human 5-HT6 receptors, CHO-human-5HT6-Aequorin assay. Details: host or cells: CHO/Gα16/mtAEQ/h5HT6-A1 (CHO AequoScreen recombinant cell line). Format: cell-based.
Protocol: Human-5-HT6-Aequorin cells express mitochondrial targeted apo-Aequorin. Cells have to be loaded with coelanterazine, in order to reconstitute active Aequorin. […] This luminescent response is dependent on the agonist concentration. Luminescence is measured using the MicroBeta Jet (Perkin Elmer). Agonistic effects of compounds are expressed as pEC50. […] Compounds were tested at a 5 log concentration range, and 3 independent experiments were performed in duplicate.
Setting [3] is: [3H]-LSD 5.0 nM, membranes of CHO cells transfected with human 5-HT6, read-out: 5-HT6 pKi (converted).
The mark [4] stands for this setting: antagonism of 10^-8 M α-methylserotonin induced luminescence, CHO-human-5HT6-Aequorin cells, read-out: 5-HT6 pA2 (converted).
Where [5] appears, read: antagonism of 10^-8 M α-methylserotonin induced luminescence, CHO-human-5HT6-Aequorin cells.

As to `CCN/C(=N\S(=O)(=O)c1cccc(Cl)c1)N1N=CC(CC)C1c1ccccc1` (single isomer, unassigned) [cis(+)-153], the Ki in experiment [1] (setting [3]) was 1260 nM.

`CCN/C(=N\S(=O)(=O)c1cccc(Cl)c1)N1N=CC(CC)C1c1ccccc1` (single isomer, unassigned) [cis(−)-153]: the Ki in experiment [1] (setting [3]) is 50.1 nM.

In the case of `CCN/C(=N\S(=O)(=O)c1cccc(Cl)c1)N1N=CC(CC)C1c1ccccc1` (single isomer, unassigned) [trans-(+)-153], the Ki in experiment [1] (setting [3]) was 126 nM.

Take `CCN/C(=N\S(=O)(=O)c1cccc(Cl)c1)N1N=CC(CC)C1c1ccccc1` (single isomer, unassigned) [trans-(−)-153]: the Ki in experiment [1] (setting [3]) was 398 nM.

On to `CCN/C(=N\S(=O)(=O)c1c(Cl)nc2sccn12)N1CC(CC)C=N1` (single isomer, unassigned; (+)) [(+)-41], for which the Kb in experiment [2] (setting [4]) is 1.26 nM.

For the compound `CCC1C=NN(/C(=N/S(=O)(=O)c2ccccc2Cl)N(CC)CC)C1` (centres unmarked) [compound 1], the Kb in experiment [2] is 316 nM.

`CCN/C(=N\S(=O)(=O)c1ccccc1Cl)N1CC(CC)C=N1` (centres unmarked) [compound 2, 2-Chloro-N-[ethylamino-(4-ethyl-4,5-dihydro-pyrazol-1-yl)-methylene]-benzenesulfon-amide]: the Kb in experiment [2] (setting [4]) is 3.16 nM. In addition, the Ki in experiment [1] (setting [3]) is 50.1 nM.

`CCC1C=NN(/C(=N/S(=O)(=O)c2ccccc2Cl)NCc2ccccc2)C1` (centres unmarked) [compound 13]: the Kb in experiment [2] (setting [4]) was 200 nM. In addition, the Ki in experiment [1] (setting [3]) is 79.4 nM.

With `CCN/C(=N\S(=O)(=O)c1cccc(Cl)c1)N1CCC=N1` [compound 28], the “5-HT6 pA2” value in experiment [2] (setting [5]) turned out to be 7.1. For the same compound, the Kb in experiment [2] (setting [4]) is 20 nM. Further, the Ki in experiment [1] (setting [3]) is 20 nM.

In the case of `CCN/C(=N\S(=O)(=O)c1cccc(Cl)c1)N1CC(C)(C)C=N1` [compound 33, 3-Chloro-N-[(4,4-dimethyl-4,5-dihydro-pyrazol-1-yl)-ethylamino-methylene]-benzenesulfonamide], the Kb in experiment [2] (setting [4]) is 12.6 nM. Moreover, in experiment [1] (setting [3]), the Ki is 15.8 nM.

Take `CCN/C(=N\S(=O)(=O)c1cccc(Cl)c1)N1CCC(C)=N1` [compound 42]: the “5-HT6 pA2” value in experiment [2] (setting [5]) amounted to 6.9. Also, in experiment [1] (5-HT6 pKi), the Ki is 200 nM.

Take `CCN/C(=N\S(=O)(=O)c1cccs1)N1CC(CC)C=N1` (centres unmarked) [compound 51]: the Kb in experiment [2] (setting [4]) was 200 nM. Moreover, the Ki in experiment [1] (setting [3]) is 126 nM.

As for `CCN/C(=N\S(=O)(=O)c1cccc2nsnc12)N1CC(CC)C=N1` (centres unmarked) [compound 78, Benzo[1,2,5]thiadiazole-4-sulfonic acid ethylamino-(4-ethyl-4,5-dihydro-pyrazol-1-yl)-methyleneamide], the Kb in experiment [2] (setting [4]) was 79.4 nM. In addition, the Ki in experiment [1] (setting [3]) was 63.1 nM.

Turning to `CCN/C(=N\S(=O)(=O)/C=C/c1ccccc1)N1CC(CC)C=N1` (centres unmarked) [compound 83], in experiment [2] (setting [4]), the Kb is 63.1 nM. Also, the Ki in experiment [1] (setting [3]) is 79.4 nM.

Take `CCN/C(=N\S(=O)(=O)c1cc2ccccc2s1)N1CC(CC)C=N1` (centres unmarked) [compound 89]: the Kb in experiment [2] (setting [4]) was 0.794 nM. Besides, the Ki in experiment [1] (setting [3]) is 5.01 nM.

On to `CN/C(=N\S(=O)(=O)c1ccc(Cl)s1)N1CC(C)(C)C=N1` [compound 103], for which the Kb in experiment [2] (setting [4]) was 50.1 nM. Moreover, in experiment [1] (setting [3]), the Ki is 79.4 nM.

In the case of `CCN/C(=N\S(=O)(=O)c1ccc(Cl)s1)N1CC(C)(C)C(C)=N1` [compound 112], the Kb in experiment [2] (setting [4]) is 63.1 nM. Moreover, the Ki in experiment [1] (setting [3]) is 200 nM.

With `CCN/C(=N\S(=O)(=O)c1cccc(Cl)c1)N1CC(c2ccccc2)C=N1` (centres unmarked) [compound 139], the Kb in experiment [2] (setting [4]) is 316 nM. Further, the Ki in experiment [1] (setting [3]) is 251 nM.

Regarding `CCN/C(=N\S(=O)(=O)c1cccc(Cl)c1)N1CC(c2ccccc2)C(C)=N1` (centres unmarked) [compound 140], the Ki in experiment [1] (setting [3]) was 200 nM.

As for `CCN/C(=N\S(=O)(=O)c1cccc(Cl)c1)N1N=CCC1c1ccco1` (centres unmarked) [compound 144], the “5-HT6 pA2” value in experiment [2] (setting [5]) came to 8.1. In addition, the Ki in experiment [1] (setting [3]) was 7.94 nM.

`CCN/C(=N\S(=O)(=O)c1cccc(Cl)c1)N1N=CCC1c1cccnc1` (centres unmarked) [compound 145]: the Kb in experiment [2] (setting [4]) is 12.6 nM. The Ki in experiment [1] (setting [3]) was 31.6 nM.

`CCN/C(=N\S(=O)(=O)c1cccc(Cl)c1)N1N=CCC1c1ccoc1` (centres unmarked) [compound 146]: the Kb in experiment [2] (setting [4]) was 39.8 nM. Besides, the Ki in experiment [1] (setting [3]) is 20 nM.

Turning to `CCN/C(=N\S(=O)(=O)c1cccc(Cl)c1)N1N=CCC1c1ccccn1` (centres unmarked) [compound 147], the Kb in experiment [2] (setting [4]) is 794 nM. Further, the Ki in experiment [1] (setting [3]) is 316 nM.

As for `CCN/C(=N\S(=O)(=O)c1cccc(Cl)c1)N1N=CCC1c1ccncc1` (centres unmarked) [compound 148], in experiment [2] (setting [5]), the “5-HT6 pA2” value is 6.9. Further, the Ki in experiment [1] (setting [3]) is 501 nM.

With `CCN/C(=N\S(=O)(=O)c1cccc(Cl)c1)N1N=CCC1c1ccsc1` (centres unmarked) [compound 149], the Kb in experiment [2] (setting [4]) was 31.6 nM. The Ki in experiment [1] (setting [3]) is 12.6 nM.

For `CCN/C(=N\S(=O)(=O)c1cccc(Cl)c1)N1N=CCC1c1cccs1` (centres unmarked) [compound 150], the Kb in experiment [2] (setting [4]) was 31.6 nM. The Ki in experiment [1] (setting [3]) is 31.6 nM.

Turning to `CCN/C(=N\S(=O)(=O)c1cccc(Cl)c1)N1N=C(C(C)C)CC1c1ccccc1` (centres unmarked) [compound 151], the Kb in experiment [2] (setting [4]) is 501 nM. The Ki in experiment [1] (setting [3]) is 200 nM.

Take `CCN/C(=N\S(=O)(=O)c1cccc(Cl)c1)N1N=CC(C)C1c1ccccc1` (centres unmarked) [compound 152]: in experiment [1] (setting [3]), the Ki was 158 nM.

Regarding `CCN/C(=N\S(=O)(=O)c1cccc(Cl)c1)N1N=CC(CC)C1c1ccccc1` (centres unmarked) [compound 153], the Ki in experiment [1] (setting [3]) was 158 nM.

Turning to `CCN/C(=N\S(=O)(=O)c1cccc(Cl)c1)N1N=CC2CN(C)CCC21` (centres unmarked) [compound 154], the Kb in experiment [2] (setting [4]) is 3.98 nM. Besides, the Ki in experiment [1] (setting [3]) was 10 nM.

As for `CCN/C(=N\S(=O)(=O)c1cccc(Cl)c1)N1CC2(C=N1)CCN(C)CC2` [compound 157], the Kb in experiment [2] (setting [4]) is 7.94 nM. Also, the Ki in experiment [1] (setting [3]) is 6.31 nM.

With `CN/C(=N\S(=O)(=O)c1cccc(Cl)c1)N1CC2(C=N1)CCOCC2` [compound 160], in experiment [2] (setting [4]), the Kb was 200 nM. In experiment [1] (setting [3]), the Ki is 79.4 nM.

Turning to `N/C(=N\S(=O)(=O)c1cccc(Cl)c1)N1CC2(C=N1)CCOCC2` [compound 161], the Kb in experiment [2] (setting [4]) was 100 nM. For the same compound, the Ki in experiment [1] (setting [3]) was 79.4 nM.

For `CCN/C(=N\S(=O)(=O)c1c(Cl)nc2sccn12)N1CC2(C=N1)CCOCC2` [compound 162], the Kb in experiment [2] (setting [4]) is 12.6 nM. Besides, in experiment [1] (setting [3]), the Ki was 63.1 nM.

With `CN/C(=N\S(=O)(=O)c1c(Cl)nc2sccn12)N1CC2(C=N1)CCOCC2` [compound 163], the Kb in experiment [2] (setting [4]) is 10 nM. Moreover, the Ki in experiment [1] (setting [3]) is 251 nM.

Take `N/C(=N\S(=O)(=O)c1c(Cl)nc2sccn12)N1CC2(C=N1)CCOCC2` [compound 164]: in experiment [2] (setting [4]), the Kb is 39.8 nM. Moreover, in experiment [1] (setting [3]), the Ki was 50.1 nM.

For `CCN/C(=N\S(=O)(=O)c1ccc(Cl)s1)N1CC2(C=N1)CCOCC2` [compound 165], in experiment [2] (setting [4]), the Kb was 20 nM. For the same compound, the Ki in experiment [1] (setting [3]) was 25.1 nM.

For the compound `CN/C(=N\S(=O)(=O)c1ccc(Cl)s1)N1CC2(C=N1)CCOCC2` [compound 166], the Kb in experiment [2] (setting [4]) is 79.4 nM. Further, the Ki in experiment [1] (setting [3]) is 100 nM.

As for `N/C(=N\S(=O)(=O)c1ccc(Cl)s1)N1CC2(C=N1)CCOCC2` [compound 167], the Kb in experiment [2] (setting [4]) was 31.6 nM. The Ki in experiment [1] (setting [3]) was 63.1 nM.

As for `CCN/C(=N\S(=O)(=O)c1cccc(Cl)c1)N1CC(CCC(F)(F)F)(CCC(F)(F)F)C=N1` [compound 168], the Ki in experiment [1] (setting [3]) was 316 nM.

As for `CCN/C(=N\S(=O)(=O)N(C)c1ccccc1)N1CC(CC)C=N1` (centres unmarked) [compound 172], the Ki in experiment [1] (setting [3]) was 316 nM.

Regarding `CCN/C(=N\S(=O)(=O)c1ccc(N(C)C)cc1)N1CC(CC)C=N1` (centres unmarked) [compound 174], the Ki in experiment [1] (setting [3]) is 100 nM.

Regarding `CCN/C(=N\S(=O)(=O)c1ccccc1Cl)N1CCCC1` [reference compound], the Kb in experiment [2] was over 10000 nM.
